Test results published in PMC7782168, “Synthesis, telomerase inhibitory and anticancer activity of new 2-phenyl-4H-chromone derivatives containing 1,3,4-oxadiazole moiety” (Journal of Enzyme Inhibition and Medicinal Chemistry, 2020).

How the values were obtained:
telomerase = molecular target: T1, telomerase (Homo sapiens, UniProt O14746); assay: Telomerase activity assay using MGC-803 cells extract; type: biochemical; details: mean ± SD
T1 construct: assayed for telomerase activity using MGC-803 cells extract; endogenous in cells; host or cells: MGC-803 cell extract
T1 sequence (O14746 whole entry): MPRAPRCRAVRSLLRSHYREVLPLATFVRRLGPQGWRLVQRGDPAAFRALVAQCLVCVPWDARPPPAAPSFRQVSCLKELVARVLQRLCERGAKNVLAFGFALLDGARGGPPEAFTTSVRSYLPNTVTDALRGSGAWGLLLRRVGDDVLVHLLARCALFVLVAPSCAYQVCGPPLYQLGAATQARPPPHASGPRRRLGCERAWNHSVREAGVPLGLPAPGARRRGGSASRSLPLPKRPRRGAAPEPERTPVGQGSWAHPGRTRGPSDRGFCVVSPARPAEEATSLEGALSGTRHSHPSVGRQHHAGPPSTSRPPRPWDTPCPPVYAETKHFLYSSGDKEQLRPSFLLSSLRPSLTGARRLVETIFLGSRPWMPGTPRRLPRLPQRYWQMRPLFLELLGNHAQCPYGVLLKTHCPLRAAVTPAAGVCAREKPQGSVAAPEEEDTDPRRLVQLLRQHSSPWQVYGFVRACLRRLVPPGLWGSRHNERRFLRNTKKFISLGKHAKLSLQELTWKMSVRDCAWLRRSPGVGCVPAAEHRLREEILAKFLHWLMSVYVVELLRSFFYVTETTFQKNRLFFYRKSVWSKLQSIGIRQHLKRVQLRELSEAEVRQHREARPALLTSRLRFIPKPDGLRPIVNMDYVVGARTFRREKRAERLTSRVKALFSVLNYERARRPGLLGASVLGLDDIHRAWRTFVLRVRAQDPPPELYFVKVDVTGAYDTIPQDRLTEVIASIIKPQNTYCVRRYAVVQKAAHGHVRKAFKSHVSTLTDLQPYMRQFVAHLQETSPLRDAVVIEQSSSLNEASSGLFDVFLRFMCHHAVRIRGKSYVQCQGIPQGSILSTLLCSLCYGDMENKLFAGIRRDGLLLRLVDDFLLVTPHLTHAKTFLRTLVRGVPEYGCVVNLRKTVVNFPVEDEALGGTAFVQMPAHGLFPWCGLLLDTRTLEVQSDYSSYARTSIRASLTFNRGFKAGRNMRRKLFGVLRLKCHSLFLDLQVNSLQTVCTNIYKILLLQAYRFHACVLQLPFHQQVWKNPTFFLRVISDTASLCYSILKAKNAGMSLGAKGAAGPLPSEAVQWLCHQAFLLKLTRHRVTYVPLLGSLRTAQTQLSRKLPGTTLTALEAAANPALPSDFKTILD
T1 sequence (O60832 2-514 partner limits assumed): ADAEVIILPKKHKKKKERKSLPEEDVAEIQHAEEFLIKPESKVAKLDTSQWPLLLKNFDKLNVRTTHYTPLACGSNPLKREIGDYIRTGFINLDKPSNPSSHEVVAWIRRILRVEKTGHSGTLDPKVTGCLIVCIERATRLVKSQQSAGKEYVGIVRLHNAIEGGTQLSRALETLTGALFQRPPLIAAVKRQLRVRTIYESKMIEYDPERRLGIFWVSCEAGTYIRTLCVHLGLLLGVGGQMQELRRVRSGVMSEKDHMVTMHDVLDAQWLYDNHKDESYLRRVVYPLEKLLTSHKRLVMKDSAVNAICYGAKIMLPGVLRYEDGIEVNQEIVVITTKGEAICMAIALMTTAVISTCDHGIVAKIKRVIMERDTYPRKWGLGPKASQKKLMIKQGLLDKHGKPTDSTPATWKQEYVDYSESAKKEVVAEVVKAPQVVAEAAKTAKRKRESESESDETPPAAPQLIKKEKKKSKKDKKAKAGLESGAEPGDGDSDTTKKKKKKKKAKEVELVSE
T1 sequence (Q9NPE3 whole entry partner): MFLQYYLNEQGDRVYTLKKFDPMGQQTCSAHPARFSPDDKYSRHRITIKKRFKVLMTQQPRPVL
T1 sequence (Q9NX24 whole entry partner): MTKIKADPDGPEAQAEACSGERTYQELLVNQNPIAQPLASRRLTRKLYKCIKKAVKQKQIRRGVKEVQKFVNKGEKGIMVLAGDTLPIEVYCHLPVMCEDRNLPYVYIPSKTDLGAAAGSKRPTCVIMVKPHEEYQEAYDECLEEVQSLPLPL
T1 sequence (Q9NY12 whole entry partner): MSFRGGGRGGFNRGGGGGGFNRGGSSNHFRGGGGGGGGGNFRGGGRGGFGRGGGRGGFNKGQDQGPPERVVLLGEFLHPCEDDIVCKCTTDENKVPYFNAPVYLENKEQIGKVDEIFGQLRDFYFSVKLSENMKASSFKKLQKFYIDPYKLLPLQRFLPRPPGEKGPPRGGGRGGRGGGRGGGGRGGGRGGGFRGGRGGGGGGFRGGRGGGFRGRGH

Structure (SMILES)	IC50 (telomerase)	melting point
COc1cc(OC)c2c(=O)c(OCC(=O)Nc3nnc(-c4ccc(F)c(Cl)c4)o3)c(-c3cc(OC)c(OC)c(OC)c3)oc2c1 [A24, N-(5–(3-chloro-4-fluorophenyl)-1,3,4-oxadiazol-2-yl)-2–(5,7-dimethoxy-4-oxo-2–(3,4,5-trimethoxyphenyl)-4H-chromen-3-yloxy)acetamide]	4.01 ± 0.47 µM	228 to 230 °C
COc1cc(OC)c2c(=O)c(OCC(=O)Nc3nnc(-c4ccc5c(c4)OCCO5)o3)c(-c3ccc(OC)c(OC)c3)oc2c1 [B29, N-(5–(2,3-dihydrobenzo[b][1, 4]dioxin-6-yl)-1,3,4-oxadiazol-2-yl)-2–(2-(3,4-dimethoxyphenyl)-5,7-dimethoxy-4-oxo-4H-chromen-3-yloxy)acetamide]	2.98 ± 0.27 µM	228 to 230 °C
COc1cc(OC)c2c(=O)c(OCC(=O)Nc3nnc(-c4ccc(C)cc4)o3)c(-c3ccc(OC)c(OC)c3)oc2c1 [B11, 2–(2-(3,4-dimethoxyphenyl)-5,7-dimethoxy-4-oxo-4H-chromen-3-yloxy)-N-(5-p-tolyl-1,3,4-oxadiazol-2-yl)acetamide]	5.65 ± 1.77 µM	239 to 241 °C
COc1cc(OC)c2c(=O)c(OCC(=O)Nc3nnc(-c4ccc(F)c(Cl)c4)o3)c(-c3ccc(OC)c(OC)c3)oc2c1 [B24, N-(5–(3-chloro-4-fluorophenyl)-1,3,4-oxadiazol-2-yl)-2–(2-(3,4-dimethoxyphenyl)-5,7-dimethoxy-4-oxo-4H-chromen-3-yloxy)acetamide]	4.17 ± 0.7 µM	232 to 234 °C
COc1cc(OC)c2c(=O)c(OCC(=O)Nc3nnc(-c4ccccc4Br)o3)c(-c3ccc(OC)c(OC)c3)oc2c1 [B10, N-(5–(2-bromophenyl)-1,3,4-oxadiazol-2-yl)-2–(2-(3,4-dimethoxyphenyl)-5,7-dimethoxy-4-oxo-4H-chromen-3-yloxy)acetamide]	> 60 µM	226 to 228 °C
COc1cc(OC)c2c(=O)c(OCC(=O)Nc3nnc(-c4ccccc4Br)o3)c(-c3cc(OC)c(OC)c(OC)c3)oc2c1 [A10, N-(5–(2-bromophenyl)-1,3,4-oxadiazol-2-yl)-2–(5,7-dimethoxy-4-oxo-2–(3,4,5-trimethoxyphenyl)-4H-chromen-3-yloxy)acetamide]	21 ± 4.09 µM	199 to 201 °C
COc1cc(OC)c2c(=O)c(OCC(=O)Nc3nnc(-c4ccccc4Cl)o3)c(-c3ccc(OC)c(OC)c3)oc2c1 [B7, N-(5–(2-chlorophenyl)-1,3,4-oxadiazol-2-yl)-2–(2-(3,4-dimethoxyphenyl)-5,7-dimethoxy-4-oxo-4H-chromen-3-yloxy)acetamide]	24.3 ± 2.7 µM	221 to 223 °C
COc1cc(OC)c2c(=O)c(OCC(=O)Nc3nnc(-c4ccccc4C)o3)c(-c3ccc(OC)c(OC)c3)oc2c1 [B13, 2–(2-(3,4-dimethoxyphenyl)-5,7-dimethoxy-4-oxo-4H-chromen-3-yloxy)-N-(5-o-tolyl-1,3,4-oxadiazol-2-yl)acetamide]	8.09 ± 2.25 µM	234 to 236 °C
COc1cc(OC)c2c(=O)c(OCC(=O)Nc3nnc(-c4cccc(F)c4)o3)c(-c3cc(OC)c(OC)c(OC)c3)oc2c1 [A3, 2–(5,7-dimethoxy-4-oxo-2–(3,4,5-trimethoxyphenyl)-4H-chromen-3-yloxy)-N-(5–(3-fluorophenyl)-1,3,4-oxadiazol-2-yl)acetamide]	2.57 ± 0.5 µM	217 to 219 °C
COc1cc(OC)c2c(=O)c(OCC(=O)Nc3nnc(-c4ccccc4C(F)(F)F)o3)c(-c3ccc(OC)c(OC)c3)oc2c1 [B18, 2–(2-(3,4-dimethoxyphenyl)-5,7-dimethoxy-4-oxo-4H-chromen-3-yloxy)-N-(5–(2-(trifluoromethyl)phenyl)-1,3,4-oxadiazol-2-yl)acetamide]	2.79 ± 0.55 µM	225 to 227 °C
COc1cc(OC)c2c(=O)c(OCC(=O)Nc3nnc(-c4ccccc4[N+](=O)[O-])o3)c(-c3ccc(OC)c(OC)c3)oc2c1 [B15, 2–(2-(3,4-dimethoxyphenyl)-5,7-dimethoxy-4-oxo-4H-chromen-3-yloxy)-N-(5–(2-nitrophenyl)-1,3,4-oxadiazol-2-yl)acetamide]	17.2 ± 2.98 µM	254 to 256 °C
COc1cc(OC)c2c(=O)c(OCC(=O)Nc3nnc(-c4ccc(Br)cc4)o3)c(-c3ccc(OC)c(OC)c3)oc2c1 [B8, N-(5–(4-bromophenyl)-1,3,4-oxadiazol-2-yl)-2–(2-(3,4-dimethoxyphenyl)-5,7-dimethoxy-4-oxo-4H-chromen-3-yloxy)acetamide]	4.29 ± 0.83 µM	212 to 214 °C
COc1ccc(-c2nnc(NC(=O)COc3c(-c4cc(OC)c(OC)c(OC)c4)oc4cc(OC)cc(OC)c4c3=O)o2)cc1 [A22, 2–(5,7-dimethoxy-4-oxo-2–(3,4,5-trimethoxyphenyl)-4H-chromen-3-yloxy)-N-(5–(4-methoxyphenyl)-1,3,4-oxadiazol-2-yl)acetamide]	9.11 ± 1.88 µM	239 to 241 °C
COc1cc(OC)c2c(=O)c(OCC(=O)Nc3nnc(-c4ccc(OC(F)(F)F)cc4)o3)c(-c3ccc(OC)c(OC)c3)oc2c1 [B19, 2–(2-(3,4-dimethoxyphenyl)-5,7-dimethoxy-4-oxo-4H-chromen-3-yloxy)-N-(5–(4-(trifluoromethoxy)phenyl)-1,3,4-oxadiazol-2-yl)acetamide]	1.77 ± 0.6 µM	217 to 219 °C
COc1cc(OC)c2c(=O)c(OCC(=O)Nc3nnc(-c4cccc(C(F)(F)F)c4)o3)c(-c3ccc(OC)c(OC)c3)oc2c1 [B17, 2–(2-(3,4-dimethoxyphenyl)-5,7-dimethoxy-4-oxo-4H-chromen-3-yloxy)-N-(5–(3-(trifluoromethyl)phenyl)-1,3,4-oxadiazol-2-yl)acetamide]	27.6 ± 3.11 µM	195 to 197 °C
COc1cc(OC)c2c(=O)c(OCC(=O)Nc3nnc(-c4ccccc4OC(F)(F)F)o3)c(-c3ccc(OC)c(OC)c3)oc2c1 [B21, 2–(2-(3,4-dimethoxyphenyl)-5,7-dimethoxy-4-oxo-4H-chromen-3-yloxy)-N-(5–(2-(trifluoromethoxy)phenyl)-1,3,4-oxadiazol-2-yl)acetamide]	9.22 ± 1.01 µM	226 to 228 °C
COc1cc(OC)cc(-c2nnc(NC(=O)COc3c(-c4ccc(OC)c(OC)c4)oc4cc(OC)cc(OC)c4c3=O)o2)c1 [B26, N-(5–(3,5-dimethoxyphenyl)-1,3,4-oxadiazol-2-yl)-2–(2-(3,4-dimethoxyphenyl)-5,7-dimethoxy-4-oxo-4H-chromen-3-yloxy)acetamide]	3.99 ± 0.85 µM	200 to 202 °C
COc1cc(OC)c2c(=O)c(OCC(=O)Nc3nnc(-c4cccc(OCc5ccccc5)c4)o3)c(-c3ccc(OC)c(OC)c3)oc2c1 [B30, N-(5–(3-(benzyloxy)phenyl)-1,3,4-oxadiazol-2-yl)-2–(2-(3,4-dimethoxyphenyl)-5,7-dimethoxy-4-oxo-4H-chromen-3-yloxy)acetamide]	> 60 µM	156 to 158 °C
COc1cc(OC)c2c(=O)c(OCC(=O)Nc3nnc(-c4ccc(Cl)c(Cl)c4)o3)c(-c3ccc(OC)c(OC)c3)oc2c1 [B25, N-(5–(3,4-dichlorophenyl)-1,3,4-oxadiazol-2-yl)-2–(2-(3,4-dimethoxyphenyl)-5,7-dimethoxy-4-oxo-4H-chromen-3-yloxy)acetamide]	> 60 µM	230 to 232 °C
COc1cc(OC)c2c(=O)c(OCC(=O)Nc3nnc(-c4ccc(F)cc4)o3)c(-c3ccc(OC)c(OC)c3)oc2c1 [B2, 2–(2-(3,4-dimethoxyphenyl)-5,7-dimethoxy-4-oxo-4H-chromen-3-yloxy)-N-(5–(4-fluorophenyl)-1,3,4-oxadiazol-2-yl)acetamide]	1.38 ± 0.25 µM	236 to 238 °C
COc1cc(OC)c2c(=O)c(OCC(=O)Nc3nnc(-c4ccccc4C(F)(F)F)o3)c(-c3cc(OC)c(OC)c(OC)c3)oc2c1 [A18, 2–(5,7-dimethoxy-4-oxo-2–(3,4,5-trimethoxyphenyl)-4H-chromen-3-yloxy)-N-(5–(2-(trifluoromethyl)phenyl)-1,3,4-oxadiazol-2-yl)acetamide]	1.07 ± 0.2 µM	191 to 193 °C
COc1cc(OC)c2c(=O)c(OCC(=O)Nc3nnc(-c4cccc(C(F)(F)F)c4)o3)c(-c3cc(OC)c(OC)c(OC)c3)oc2c1 [A17, 2–(5,7-dimethoxy-4-oxo-2–(3,4,5-trimethoxyphenyl)-4H-chromen-3-yloxy)-N-(5–(3-(trifluoromethyl)phenyl)-1,3,4-oxadiazol-2-yl)acetamide]	4.11 ± 0.62 µM	220 to 222 °C
COc1cc(OC)c2c(=O)c(OCC(=O)Nc3nnc(-c4ccccc4F)o3)c(-c3cc(OC)c(OC)c(OC)c3)oc2c1 [A4, 2–(5,7-dimethoxy-4-oxo-2–(3,4,5-trimethoxyphenyl)-4H-chromen-3-yloxy)-N-(5–(2-fluorophenyl)-1,3,4-oxadiazol-2-yl)acetamide]	12.1 ± 2.01 µM	213 to 215 °C
COc1cc(OC)c2c(=O)c(OCC(=O)Nc3nnc(-c4cccc(C)c4)o3)c(-c3cc(OC)c(OC)c(OC)c3)oc2c1 [A12, 2–(5,7-dimethoxy-4-oxo-2–(3,4,5-trimethoxyphenyl)-4H-chromen-3-yloxy)-N-(5-m-tolyl-1,3,4-oxadiazol-2-yl)acetamide]	15.3 ± 2.85 µM	197 to 199 °C
COc1cccc(-c2nnc(NC(=O)COc3c(-c4ccc(OC)c(OC)c4)oc4cc(OC)cc(OC)c4c3=O)o2)c1 [B23, 2–(2-(3,4-dimethoxyphenyl)-5,7-dimethoxy-4-oxo-4H-chromen-3-yloxy)-N-(5–(3-methoxyphenyl)-1,3,4-oxadiazol-2-yl)acetamide]	2.44 ± 0.42 µM	205 to 207 °C
COc1cc(OC)c2c(=O)c(OCC(=O)Nc3nnc(-c4ccccc4OC(F)(F)F)o3)c(-c3cc(OC)c(OC)c(OC)c3)oc2c1 [A21, 2–(5,7-dimethoxy-4-oxo-2–(3,4,5-trimethoxyphenyl)-4H-chromen-3-yloxy)-N-(5–(2-(trifluoromethoxy)phenyl)-1,3,4-oxadiazol-2-yl)acetamide]	5.11 ± 1.1 µM	202 to 204 °C
